IC50 data for two compounds are collected here from PubChem BioAssay AID651796 (The Scripps Research Institute Molecular Screening Center, 2012).

The test addresses Nuclear receptor coactivator 1 (Homo sapiens) (UniProt Q15788). Put plainly: NCOA1-driven reporter transcription inhibition – cell-based, luminescence, late-stage follow-up (AID 651796). To be noted: cell-based SRC1 reporter.

Each structure is given as a SMILES string. Calls of active or inactive are those of the source. No rule for the calls is given here.

Chain of Nuclear receptor coactivator 1 (Homo sapiens) (Q15788 whole entry, looked up): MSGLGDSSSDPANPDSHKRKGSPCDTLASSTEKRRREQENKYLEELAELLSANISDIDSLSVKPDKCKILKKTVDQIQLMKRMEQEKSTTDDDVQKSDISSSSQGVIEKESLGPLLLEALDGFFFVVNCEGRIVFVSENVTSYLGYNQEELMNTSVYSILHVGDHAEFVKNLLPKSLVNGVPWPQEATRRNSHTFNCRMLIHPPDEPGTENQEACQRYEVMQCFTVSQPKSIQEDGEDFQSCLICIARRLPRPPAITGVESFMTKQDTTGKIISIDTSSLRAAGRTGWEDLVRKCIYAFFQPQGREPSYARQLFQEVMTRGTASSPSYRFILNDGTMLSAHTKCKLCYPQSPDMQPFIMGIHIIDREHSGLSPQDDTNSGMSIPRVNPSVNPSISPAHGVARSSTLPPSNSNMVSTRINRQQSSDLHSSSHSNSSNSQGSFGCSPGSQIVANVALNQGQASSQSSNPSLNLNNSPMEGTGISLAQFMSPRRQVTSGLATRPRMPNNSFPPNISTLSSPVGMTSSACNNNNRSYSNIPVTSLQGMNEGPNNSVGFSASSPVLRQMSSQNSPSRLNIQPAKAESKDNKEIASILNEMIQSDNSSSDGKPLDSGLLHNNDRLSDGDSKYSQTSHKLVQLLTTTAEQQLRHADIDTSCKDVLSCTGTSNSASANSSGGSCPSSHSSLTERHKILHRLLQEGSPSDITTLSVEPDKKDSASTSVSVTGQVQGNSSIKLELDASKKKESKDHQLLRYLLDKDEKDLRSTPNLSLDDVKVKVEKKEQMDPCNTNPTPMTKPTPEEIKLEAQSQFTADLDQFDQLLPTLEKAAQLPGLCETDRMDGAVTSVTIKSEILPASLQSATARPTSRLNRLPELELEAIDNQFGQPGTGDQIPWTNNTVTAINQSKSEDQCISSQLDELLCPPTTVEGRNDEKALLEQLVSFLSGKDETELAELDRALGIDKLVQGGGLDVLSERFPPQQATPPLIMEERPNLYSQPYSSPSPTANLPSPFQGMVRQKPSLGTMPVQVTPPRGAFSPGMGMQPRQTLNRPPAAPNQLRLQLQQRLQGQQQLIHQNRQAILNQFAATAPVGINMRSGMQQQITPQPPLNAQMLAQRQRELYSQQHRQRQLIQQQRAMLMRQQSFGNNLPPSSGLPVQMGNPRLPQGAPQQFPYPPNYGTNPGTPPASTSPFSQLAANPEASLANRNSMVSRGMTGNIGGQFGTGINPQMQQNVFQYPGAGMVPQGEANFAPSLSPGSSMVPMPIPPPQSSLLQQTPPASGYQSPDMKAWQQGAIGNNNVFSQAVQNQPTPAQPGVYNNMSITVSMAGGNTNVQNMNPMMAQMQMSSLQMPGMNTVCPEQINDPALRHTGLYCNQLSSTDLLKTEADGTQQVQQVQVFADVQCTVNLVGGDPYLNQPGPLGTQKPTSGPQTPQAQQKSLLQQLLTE

By IC50 is commonly meant the concentration that inhibits the measured activity by half. Consider `COc1ccc(Nc2ncnc3ccc(Br)cc23)c(OC)c1`, for which the IC50 entry was “inactive”.

`COc1ccc(NC(=O)CN(C)C(=O)C2(c3ccccc3)CCCC2)cc1`: the IC50 is 9.94 µM.
